# How the values were obtained:
# [1] = biological target: human lysosomal α-glucosidase (Homo sapiens, UniProt P10253); assay: α-glucosidase inhibitory activity assay; assay type: biochemical; conditions: 1.43 mM compound; lysosomal α-glucosidase extracts; pH 4.0, 37 °C
# α-glucosidase = conditions: previously reported; cited from earlier work
α-glucosidase inhibition (%) [1],Molecule,IC50 (α-glucosidase)
46%,"1-(α-D-Glucopyranosyl)-4-cyano-phenyl-[1,2,3]-triazole [AGT3]",–
57%,"1-(α-D-Glucopyranosyl)-4-nitro-phenyl-[1,2,3]-triazole [AGT5]",–
–,O=c1cc(-c2ccccc2)oc2cc(O)cc(O)c12 [chrysin],77 µM

# Reference: publication PMC8495876 (ACS Omega, 2021)
